Laboratory results published in BindingDB's records for patent US20240002388 (Hutchison Medipharma, 2024).

Biological target: T1, Receptor-interacting serine/threonine-protein kinase 1 (Homo sapiens, UniProt Q13546)
T1 sequence (Q13546 whole entry): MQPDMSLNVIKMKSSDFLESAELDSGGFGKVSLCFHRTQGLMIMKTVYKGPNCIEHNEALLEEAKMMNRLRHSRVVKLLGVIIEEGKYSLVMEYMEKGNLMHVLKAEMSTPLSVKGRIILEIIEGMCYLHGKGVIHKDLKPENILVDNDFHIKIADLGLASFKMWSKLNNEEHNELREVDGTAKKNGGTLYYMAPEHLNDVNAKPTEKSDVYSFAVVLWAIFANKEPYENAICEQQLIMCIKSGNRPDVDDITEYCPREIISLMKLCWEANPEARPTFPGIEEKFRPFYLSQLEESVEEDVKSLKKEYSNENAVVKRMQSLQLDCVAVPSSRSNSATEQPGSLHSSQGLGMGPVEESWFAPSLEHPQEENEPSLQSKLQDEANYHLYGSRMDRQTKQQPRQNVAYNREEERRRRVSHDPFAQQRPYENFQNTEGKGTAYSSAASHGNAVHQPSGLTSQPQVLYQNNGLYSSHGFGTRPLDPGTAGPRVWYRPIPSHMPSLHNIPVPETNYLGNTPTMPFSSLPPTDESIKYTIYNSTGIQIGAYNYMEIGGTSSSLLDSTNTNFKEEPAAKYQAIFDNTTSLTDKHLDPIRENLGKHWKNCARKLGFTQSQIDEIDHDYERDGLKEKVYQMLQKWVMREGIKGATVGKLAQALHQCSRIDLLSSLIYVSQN
Test: RIPK1 Kinase Activity Assay
Method: ADP-Glo Kinase kit can be used to measure ADP level in kinase activity assay so as to distinguish the inhibitory effects of different compounds on RIPK1 kinase activity. The ADP-Glo assay was usually divided into three steps. Firstly, the kinase converted ATP to ADP and phosphorylated the substrate at the same time; secondly, ATP digestion reagent was added to degrade all ATP in the reaction system; finally, a detection reagent was added to reduce ADP to ATP, and energy from ATP was transferred to […] which thus emitting a chemical luminescence that can be detected. Assay procedure can refer to manufacture's technical manual.(2) Reagent Preparation:1.33× kinase buffer: 5× kinase buffer stock (250 mM of NaCl, 150 mM of MgCl2, 2.5 mg/ml BSA (bovine serum albumin), 0.1% CHAPS (3-[(3-cholamidopropyl)-dimethyl-ammonio]-1-propane sulfonate), and 5 mM of dithiothreitol) was diluted with water to 1.33× kinase buffer;RIPK1 enzyme solution: the kinase was dissolved in 1.33× kinase buffer to make 40 nM as the final working concentration;ATP solution: 10 mM ATP stock solution in water was dissolved in 1.33× kinase buffer to make 10 μM as the final working concentration;4× compound preparation: the compound was diluted in a 3-fold gradient, and finally 4% DMSO aqueous solution containing different concentrations of the compound was obtained. […]

IC50: 18 nM
Compound: CC(C)n1cncc(-c2ccc(C3(NC(=O)c4nnc(Cc5ccccc5)[nH]4)CC3)cc2)c1=O [US20240002388, Compound 14]
